Measurements reported in US10344330B2, “Glatiramer acetate response biomarker mRNA potency assay” (Mylan Inc., priority 2013, dated 2019).

Tested on: IL-4 mRNA in LN cells
Test: IL-4 mRNA by real-time PCR in LN cells of GA-immunized CD-1, BALB/cByJ, SJL/J mice (Example III)
Type: cell-based, mouse
Settings: 6 hours
Experimental: On Day 0, mice were immunized with 250 μg GA (GMA, Mylan Pharmaceuticals, Inc.) and CFA. The GA solution (20 mg/mL) was diluted with Dulbecco's Phosphate-Buffered Saline to 5 mg/mL. The dosing formulation consisted of equal volumes of the diluted GA solution (5 mg/mL) and CFA solution, mixed until well-emulsified. Animals were weighed and allocated to groups. Animals were dosed by injection into four footpads. The injection volume per animal was 0.1 mL (about 10 μL into each front footpad, and 40 μL into each hind footpad).
Immunized animals were euthanized by cervical dislocation on Day 10 post-immunization. Lymph node cells were isolated from animals and treated with Myelin Basic Protein (MBP, a negative control), Concanavalin A (ConA, a positive control) or GA as shown in Table 16. Lymph nodes in the axillary and popliteal regions were removed aseptically in a purifier clean bench. […] The LN were then washed 3 times with −5 mL of RPMI medium, and isolated by pressing the LN with a syringe plunger. […] The cell suspension was centrifuged at about 200×g for 10 minutes at about 4° C. and re-suspended in ice cold enriched DCCM-1 medium. Cells were seeded in 96-well tissue culture plates.
LN cells isolated from GA-immunized animals were stimulated with GA (GMA, Mylan Pharmaceuticals, Inc.) at concentrations as indicated in Tables 16 and 17. A positive control was prepared by treating LN cells with 2.5 μg/mL concavalin A (ConA, a non-specific T cell stimulant). Myelin basic protein (MBP, 10 μg/mL) and enriched DCCM-1 medium served as negative controls. The cells from all groups each were stimulated with the same GA lot. Each reaction was set up in triplicate.
After incubation at about 37° C. in a humidified CO2 incubator for 6 hours, the cells were lysed for total RNA isolation. Total RNA was isolated from treated LN cells using SV 96 Total RNA Isolation System according to the manufacturer's protocol (Promega, Cat. #Z3500). Cells were washed once with Phosphate Buffered Saline (PBS) and lysed in RNA lysis buffer. The lysate was transferred to wells of the SV 96 binding plate. Samples were washed with RNA wash solution and treated with DNase. Total RNA was eluted with nuclease-free water from the binding plate.
After the reverse transcriptase reaction was completed, cDNA samples were used directly for real-time PCR to measure the response biomarker mRNA levels produced by the stimulated cells. […] All probes for target genes contained FAM dye, and probes for the internal control contained VIC®/MGB dye. Samples will be prepared and run in 96-well plates using a Real-Time PCR system (7500, Life Technologies). This system allows direct detection of PCR-product formation by measuring the increase in fluorescent emission continuously during the PCR reaction. A relative quantitation method was used to analyze changes in mouse IL-2, IL-4, IL-5, IL-10, IL-13, IFN-γ and TNF-α expression in GA-treated samples relative to the untreated control (enriched DCCM-1 treated) samples. The Real-Time PCR program was:
The levels of mouse cytokine amplicons (IL-2, IL-4, IL-5, IL-10, IL-13, mIFN-γ and TNF-α) were normalized to internal probe levels (GAPDH) from the same samples. The following equations were used to calculate the relative increase in response to GA stimulation compared to the control sample: ΔCT=CT_target−CT_reference ΔΔCT=−ΔCT_Treated−CT_VC

[1] = Group 1C: CD-1, GA-immunized, stimulation 10 μg/mL
[2] = Group 2C: BALB/cByJ, GA-immunized, stimulation 10 μg/mL
[3] = Group 3C: SJL/J, GA-immunized, stimulation 10 μg/mL

Row | Molecule | IL-4 mRNA Expression (Group 1C: CD-1, GA-immunized, stimulation 0.3 μg/mL) [fold change vs control] | IL-4 mRNA Expression (Group 1C: CD-1, GA-immunized, stimulation 1 μg/mL) [fold change vs control] | IL-4 mRNA Expression (Group 1C: CD-1, GA-immunized, stimulation 3 μg/mL) [fold change vs control] | IL-4 mRNA Expression [1] [fold change vs control] | IL-4 mRNA Expression (Group 2C: BALB/cByJ, GA-immunized, stimulation 0.3 μg/mL) [fold change vs control] | IL-4 mRNA Expression (Group 2C: BALB/cByJ, GA-immunized, stimulation 1 μg/mL) [fold change vs control] | IL-4 mRNA Expression (Group 2C: BALB/cByJ, GA-immunized, stimulation 3 μg/mL) [fold change vs control] | IL-4 mRNA Expression [2] [fold change vs control] | IL-4 mRNA Expression (Group 3C: SJL/J, GA-immunized, stimulation 0.3 μg/mL) [fold change vs control] | IL-4 mRNA Expression (Group 3C: SJL/J, GA-immunized, stimulation 1 μg/mL) [fold change vs control] | IL-4 mRNA Expression (Group 3C: SJL/J, GA-immunized, stimulation 3 μg/mL) [fold change vs control] | IL-4 mRNA Expression [3] [fold change vs control] | IL-4 mRNA Expression (Group 1C: CD-1, GA-immunized, stimulation 2.5 μg/mL) [fold change vs control] | IL-4 mRNA Expression (Group 2C: BALB/cByJ, GA-immunized, stimulation 2.5 μg/mL) [fold change vs control] | IL-4 mRNA Expression (Group 3C: SJL/J, GA-immunized, stimulation 2.5 μg/mL) [fold change vs control]
1 | L-glutamic acid polymer with L-alanine, L-lysine and L-tyrosine, acetate (salt) [GA] | 1.6 | 4.7 | 6.1 | 11.2 | 4.2 | 6.5 | 10.1 | 9.8 | 2.0 | 5.2 | 10.0 | 15.3 | – | – | –
2 | Concanavalin A [ConA, reference compound] | – | – | – | – | – | – | – | – | – | – | – | – | 23.8 | 27.2 | 29.2
3 | MBP: myelin basic protein, a negative control (protein, UniProt P02686 1-304, looked up) Myelin basic protein: MGNHAGKRELNAEKASTNSETNRGESEKKRNLGELSRTTSEDNEVFGEADANQNNGTSSQDTAVTDSKRTADPKNAWQDAHPADPGSRPHLIRLFSRDAPGREDNTFKDRPSESDELQTIQEDSAATSESLDVMASQKRPSQRHGSKYLATASTMDHARHGFLPRHRDTGILDSIGRFFGGDRGAPKRGSGKDSHHPARTAHYGSLPQKSHGRTQDENPVVHFFKNIVTPRTPPPSQGKGRGLSLSRFSWGAEGQRPGFGYGGRASDYKSAHKGFKGVDAQGTLSKIFKLGGRDSRSGSPMARR | – | – | – | 0.6 | – | – | – | 1.1 | – | – | – | 0.5 | – | – | –
